Laboratory results reported in patent US20020049249A1, “PPAR receptor activator compounds for treating cutaneous disorders/afflictions” (priority 1999, published 2002).

Experiments:
Type in all cases: cell-based
[1] = molecular target: T1, PPAR-γ (Homo sapiens, UniProt P37231); assay: PPAR-γ transactivation test (luciferase reporter, cotransfected HeLa cells); parameters: concentration or dose not given beside the values; settings: HeLa cells cotransfected with receptor vector and PPRE-luciferase reporter, 24 hours; relative to Reference 2
T1 construct: expressed in transfected cells; host or cells: HeLa cells
T1 sequence (P37231 1-505): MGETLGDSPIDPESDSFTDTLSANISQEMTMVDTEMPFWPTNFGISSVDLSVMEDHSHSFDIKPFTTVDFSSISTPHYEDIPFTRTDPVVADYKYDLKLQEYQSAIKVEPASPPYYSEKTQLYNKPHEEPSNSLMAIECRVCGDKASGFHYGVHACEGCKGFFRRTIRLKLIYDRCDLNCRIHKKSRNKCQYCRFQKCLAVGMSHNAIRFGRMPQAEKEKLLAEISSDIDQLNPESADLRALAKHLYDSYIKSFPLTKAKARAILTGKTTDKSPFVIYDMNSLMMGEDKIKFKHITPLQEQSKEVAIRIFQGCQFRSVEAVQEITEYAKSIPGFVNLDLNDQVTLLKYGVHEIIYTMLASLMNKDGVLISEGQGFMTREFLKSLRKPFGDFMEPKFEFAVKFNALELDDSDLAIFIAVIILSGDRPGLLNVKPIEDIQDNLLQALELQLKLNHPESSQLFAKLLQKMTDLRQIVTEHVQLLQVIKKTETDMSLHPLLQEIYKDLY
Method: (§1) This activity is determined employing an enzyme (luciferase) which is a reporter of the activation due to the compound via one of the PPAR receptors.
(§2) The biological tests carried out correspond to those described above. […] Thus, the activating power via PPAR-α, PPAR-γ or PPAR-δ of molecules can be evaluated with a transactivation test in which HeLa cells were cotransfected with an expression vector encoding these receptors and a reporter plasmid comprising a PPRE response element cloned upstream of a portion of a promoter of the SV40 virus and of the luciferase gene. The cotransfected cells were treated for 24 hours with the molecules to be tested and the activity of the luciferase was determined by luminescence.

[2] = molecular target: T2, PPAR-α (Homo sapiens, UniProt Q07869); assay: PPAR-α transactivation test (luciferase reporter, cotransfected HeLa cells); parameters: concentration or dose not given beside the values; settings: HeLa cells cotransfected with receptor vector and PPRE-luciferase reporter, 24 hours; relative to Reference 1
T2 construct: expressed in transfected cells; host or cells: HeLa cells
T2 sequence (Q07869 1-468): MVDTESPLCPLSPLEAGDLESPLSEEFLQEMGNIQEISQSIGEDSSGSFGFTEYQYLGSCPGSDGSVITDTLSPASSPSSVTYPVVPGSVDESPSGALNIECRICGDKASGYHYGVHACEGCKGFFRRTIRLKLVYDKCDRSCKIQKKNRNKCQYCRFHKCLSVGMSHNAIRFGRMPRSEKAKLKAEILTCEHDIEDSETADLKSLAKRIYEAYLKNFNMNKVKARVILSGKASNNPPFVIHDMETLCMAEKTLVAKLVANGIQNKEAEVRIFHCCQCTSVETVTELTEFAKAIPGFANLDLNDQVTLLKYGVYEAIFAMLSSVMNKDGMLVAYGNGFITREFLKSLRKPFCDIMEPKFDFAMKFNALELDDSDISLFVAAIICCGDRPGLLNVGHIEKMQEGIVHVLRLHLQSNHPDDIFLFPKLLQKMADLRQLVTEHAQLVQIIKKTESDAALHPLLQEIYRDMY
Method: as §1, §2

[3] = molecular target: T3, PPAR-β (Homo sapiens, UniProt Q03181); assay: PPAR-β transactivation test (luciferase reporter, cotransfected HeLa cells); parameters: % of activation, β: concentration or dose not given beside the values; settings: 24 hours; for % of activation, β: HeLa cells cotransfected with receptor vector and PPRE-luciferase reporter, relative to Reference 2; for AC50: HeLa cells cotransfected, concentration giving 50% of the activity of the reference molecule
T3 construct: expressed in transfected cells; host or cells: HeLa cells
T3 sequence (Q03181 1-441): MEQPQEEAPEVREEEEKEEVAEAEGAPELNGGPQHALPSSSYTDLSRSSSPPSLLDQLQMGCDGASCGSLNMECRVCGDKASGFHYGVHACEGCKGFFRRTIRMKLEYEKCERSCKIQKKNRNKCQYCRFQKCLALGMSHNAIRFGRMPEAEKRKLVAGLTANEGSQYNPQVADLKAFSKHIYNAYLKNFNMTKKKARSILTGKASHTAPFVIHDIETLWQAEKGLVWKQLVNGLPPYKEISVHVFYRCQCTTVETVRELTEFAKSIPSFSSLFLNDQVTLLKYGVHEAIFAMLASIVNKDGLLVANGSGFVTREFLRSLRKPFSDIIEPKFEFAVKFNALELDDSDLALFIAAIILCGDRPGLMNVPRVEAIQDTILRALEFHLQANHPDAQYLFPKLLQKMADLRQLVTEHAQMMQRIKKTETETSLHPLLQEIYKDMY
Method: as §1, §2

SMILES | % of activation, γ [1] | % of activation, α [2] | % of activation, β [3] | AC50 [3]
CC1=NC(=Cc2ccc(Oc3ccc4c(c3)C(C)(C)CCC4(C)C)cc2)C(=O)O1 [Comparative Example 1, 2-methyl-4-[4-(5,5,8,8,-tetramethyl-5,6,7,8-tetrahydronaphth-2-yloxy)benzylidine]-4H-oxazol-5-one, reference compound] | 0% | 5% | 7% | –
CC(=O)NC(=Cc1ccc(Oc2ccc3c(c2)C(C)(C)CCC3(C)C)cc1)C(=O)O [Comparative Example 2, 2-acetylamino-3-[4-(5,5,8,8-tetramethyl-5,6,7,8-tetrahydronaphth-2-yloxy)phenyl]-acrylic acid, reference compound] | 4% | 7% | 0% | –
CC1(C)CCC(C)(C)c2cc(Oc3ccc4cc(C(=O)O)ccc4c3)ccc21 [Compound 1, 6-(5,5,8,8-tetramethyl-5,6,7,8-tetrahydronaphth-2-yloxy)naphthalene-2-carboxylic acid] | 23% | 18% | 152% | 700 nM
CC1(C)CCC(C)(C)c2cc(Oc3ccc(C=CC(=O)O)cc3)ccc21 [Compound 2, 3-[4-(5,5,8,8-tetramethyl-5,6,7,8-tetrahydronaphth-2-yloxy)phenyl]acrylic acid] | 18% | 12% | 204% | 900 nM
CC1(C)CCC(C)(C)c2cc(Sc3ccc4cc(C(=O)O)ccc4c3)ccc21 [Compound 3, 6-(5,5,8,8-tetramethyl-5,6,7,8-tetrahydronaphth-2-ylsulfanyl)naphthalene-2-carboxylic acid] | 40% | 24% | 172% | 200 nM
CC(=CC(=O)O)c1ccc(Oc2ccc3c(c2)C(C)(C)CCC3(C)C)cc1 [Compound 4, 3-[4-(5,5,8,8-tetramethyl-5,6,7,8-tetrahydronaphth-2-yloxy)phenyl]but-2-enoic acid] | 0% | 12% | 56% | –
CC1(C)CCC(C)(C)c2cc(Nc3ccc4cc(C(=O)O)ccc4c3)ccc21 [Compound 5, 6-(5,5,8,8-tetramethyl-5,6,7,8-tetrahydronaphth-2-ylamino)naphthalene-2-carboxylic acid] | 69% | 25% | 328% | 7000 nM
Cc1cccc(Nc2cc(Cl)nc(SCC(=O)O)n2)c1C [Reference 1, [4-chloro-6-(2,3-dimethyl-phenylamino)pyrimidin-2-ylsulfanyl]acetic acid, reference compound] | – | 100% | – | –
